Experimental data reported in PubChem BioAssay (NCI).
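These data come from cells grown in 96-well plates and exposed to compound for 48 hours at five concentrations. Abbreviation: GI50, concentration required for 50% inhibition of growth. TGI marks complete inhibition of growth.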

Assays:
Test in all cases: DTP human tumour cell line panel, 48 h
CCRF-CEM leukemia = tested on: CCRF-CEM leukemia
SK-MEL-28 melanoma = tested on: SK-MEL-28 melanoma
HCT-116 colon = tested on: HCT-116 colon
HL-60(TB) leukemia = tested on: HL-60(TB) leukemia
SNB-19 CNS = tested on: SNB-19 CNS
RXF 393 renal = tested on: RXF 393 renal
SK-MEL-5 melanoma = tested on: SK-MEL-5 melanoma
LOX IMVI melanoma = tested on: LOX IMVI melanoma
786-0 renal = tested on: 786-0 renal
KM12 colon = tested on: KM12 colon
NCI-H522 lung = tested on: NCI-H522 lung
SNB-75 CNS = tested on: SNB-75 CNS
U251 CNS = tested on: U251 CNS
NCI-H23 lung = tested on: NCI-H23 lung
PC-3 prostate = tested on: PC-3 prostate
SF-295 CNS = tested on: SF-295 CNS
OVCAR-4 ovarian = tested on: OVCAR-4 ovarian
OVCAR-8 ovarian = tested on: OVCAR-8 ovarian
SW-620 colon = tested on: SW-620 colon
HS 578T breast = tested on: HS 578T breast
MCF7 breast = tested on: MCF7 breast
HOP-92 NSCLC = tested on: HOP-92 NSCLC
EKVX NSCLC = tested on: EKVX NSCLC
OVCAR-3 ovarian = tested on: OVCAR-3 ovarian
SF-268 CNS = tested on: SF-268 CNS
MDA-MB-231 breast = tested on: MDA-MB-231 breast
SF-539 CNS = tested on: SF-539 CNS
NCI-H460 lung = tested on: NCI-H460 lung
A498 renal = tested on: A498 renal
M14 melanoma = tested on: M14 melanoma
HOP-62 NSCLC = tested on: HOP-62 NSCLC
NCI/ADR-RES ovarian = tested on: NCI/ADR-RES ovarian
UO-31 renal = tested on: UO-31 renal
SK-OV-3 ovarian = tested on: SK-OV-3 ovarian
TK-10 renal = tested on: TK-10 renal
OVCAR-5 ovarian = tested on: OVCAR-5 ovarian
BT-549 breast = tested on: BT-549 breast
HCT-15 colon = tested on: HCT-15 colon
NCI-H226 lung = tested on: NCI-H226 lung
SR leukemia = tested on: SR leukemia
T-47D breast = tested on: T-47D breast
IGROV1 ovarian = tested on: IGROV1 ovarian
SN12C renal = tested on: SN12C renal
HT29 colon = tested on: HT29 colon
UACC-62 melanoma = tested on: UACC-62 melanoma
MOLT-4 leukemia = tested on: MOLT-4 leukemia
SK-MEL-2 melanoma = tested on: SK-MEL-2 melanoma
A549 NSCLC = tested on: A549 NSCLC
ACHN renal = tested on: ACHN renal
DU-145 prostate = tested on: DU-145 prostate
HCC-2998 colon = tested on: HCC-2998 colon

CCOC(=O)c1cc(C(=O)c2cc(OC)cc(OC)c2)n2nc(C)ccc12
GI50 (CCRF-CEM leukemia): 348 nM
TGI (CCRF-CEM leukemia): > 100000 nM
GI50 (SK-MEL-28 melanoma): > 100000 nM
TGI (SK-MEL-28 melanoma): > 100000 nM
GI50 (HCT-116 colon): 331 nM
TGI (HCT-116 colon): > 100000 nM
GI50 (HL-60(TB) leukemia): 248 nM
TGI (HL-60(TB) leukemia): 797 nM
GI50 (SNB-19 CNS): 752 nM
TGI (SNB-19 CNS): > 100000 nM
GI50 (RXF 393 renal): 239 nM
TGI (RXF 393 renal): 3160 nM
GI50 (SK-MEL-5 melanoma): 276 nM
TGI (SK-MEL-5 melanoma): > 100000 nM
GI50 (LOX IMVI melanoma): 493 nM
TGI (LOX IMVI melanoma): > 100000 nM
GI50 (786-0 renal): 523 nM
TGI (786-0 renal): > 100000 nM
GI50 (KM12 colon): 254 nM
TGI (KM12 colon): > 100000 nM
GI50 (NCI-H522 lung): 303 nM
TGI (NCI-H522 lung): > 100000 nM
GI50 (SNB-75 CNS): 384 nM
TGI (SNB-75 CNS): > 100000 nM
GI50 (U251 CNS): 549 nM
TGI (U251 CNS): > 100000 nM
GI50 (NCI-H23 lung): 1290 nM
TGI (NCI-H23 lung): > 100000 nM
GI50 (PC-3 prostate): 317 nM
TGI (PC-3 prostate): > 100000 nM
GI50 (SF-295 CNS): 311 nM
TGI (SF-295 CNS): 38300 nM
GI50 (OVCAR-4 ovarian): 1450 nM
TGI (OVCAR-4 ovarian): > 100000 nM
GI50 (OVCAR-8 ovarian): 1090 nM
TGI (OVCAR-8 ovarian): > 100000 nM
GI50 (SW-620 colon): 280 nM
TGI (SW-620 colon): > 100000 nM
GI50 (HS 578T breast): 284 nM
TGI (HS 578T breast): > 100000 nM
GI50 (MCF7 breast): 313 nM
TGI (MCF7 breast): > 100000 nM
GI50 (HOP-92 NSCLC): 446 nM
TGI (HOP-92 NSCLC): > 100000 nM
GI50 (EKVX NSCLC): 975 nM
TGI (EKVX NSCLC): > 100000 nM
GI50 (OVCAR-3 ovarian): 289 nM
TGI (OVCAR-3 ovarian): 2110 nM
GI50 (SF-268 CNS): 676 nM
TGI (SF-268 CNS): > 100000 nM
GI50 (MDA-MB-231 breast): 1700 nM
TGI (MDA-MB-231 breast): > 100000 nM
GI50 (SF-539 CNS): 349 nM
TGI (SF-539 CNS): 3020 nM
GI50 (NCI-H460 lung): 365 nM
TGI (NCI-H460 lung): > 100000 nM
GI50 (A498 renal): 388 nM
TGI (A498 renal): > 100000 nM
GI50 (M14 melanoma): 251 nM
TGI (M14 melanoma): > 100000 nM
GI50 (HOP-62 NSCLC): 691 nM
TGI (HOP-62 NSCLC): > 100000 nM
GI50 (NCI/ADR-RES ovarian): 308 nM
TGI (NCI/ADR-RES ovarian): 14800 nM
GI50 (UO-31 renal): 698 nM
TGI (UO-31 renal): > 100000 nM
GI50 (SK-OV-3 ovarian): 878 nM
TGI (SK-OV-3 ovarian): > 100000 nM
GI50 (TK-10 renal): > 100000 nM
TGI (TK-10 renal): > 100000 nM
GI50 (OVCAR-5 ovarian): 2700 nM
TGI (OVCAR-5 ovarian): > 100000 nM
GI50 (BT-549 breast): 1990 nM
TGI (BT-549 breast): > 100000 nM
GI50 (HCT-15 colon): 280 nM
TGI (HCT-15 colon): > 100000 nM
GI50 (NCI-H226 lung): > 100000 nM
TGI (NCI-H226 lung): > 100000 nM
GI50 (SR leukemia): 75.9 nM
TGI (SR leukemia): > 100000 nM
GI50 (T-47D breast): 501 nM
TGI (T-47D breast): > 100000 nM
GI50 (IGROV1 ovarian): 943 nM
TGI (IGROV1 ovarian): > 100000 nM
GI50 (SN12C renal): 692 nM
TGI (SN12C renal): > 100000 nM
GI50 (HT29 colon): 401 nM
TGI (HT29 colon): > 100000 nM
GI50 (UACC-62 melanoma): 477 nM
TGI (UACC-62 melanoma): > 100000 nM
GI50 (MOLT-4 leukemia): 527 nM
TGI (MOLT-4 leukemia): > 100000 nM
GI50 (SK-MEL-2 melanoma): 494 nM
TGI (SK-MEL-2 melanoma): > 100000 nM
GI50 (A549 NSCLC): 766 nM
TGI (A549 NSCLC): > 100000 nM
GI50 (ACHN renal): 731 nM
TGI (ACHN renal): > 100000 nM
GI50 (DU-145 prostate): 906 nM
TGI (DU-145 prostate): > 100000 nM
GI50 (HCC-2998 colon): 3340 nM
TGI (HCC-2998 colon): > 100000 nM
